Each structure is given as a SMILES string.

Broadly, the IC50 is the concentration at which inhibition is half-maximal. Low readings indicate higher potency, high ones lower potency.

The nature of the assay: Inhibitory activity against gastrin receptor.
`Cc1cccc(NC(=O)NC2N=C(c3ccccc3)c3ccccc3N(CC(=O)NCCCOc3cccc(CN4CCCCC4)c3)C2=O)c1` (centres undefined) [2-[2-Oxo-5-phenyl-3-(3-m-tolyl-ureido)-2,3-dihydro-benzo[e][1,4]diazepin-1-yl]-N-[3-(3-piperidin-1-ylmethyl-phenoxy)-propyl]-acetamide] displayed an IC50 of 155 nM.

With `Cc1cccc(NC(=O)NC2N=C(c3ccccc3)c3ccccc3N(CC(=O)NCC(=O)NCCCOc3cccc(CN4CCCCC4)c3)C2=O)c1` (centres undefined) [2-[2-Oxo-5-phenyl-3-(3-m-tolyl-ureido)-2,3-dihydro-benzo[e][1,4]diazepin-1-yl]-N-{[3-(3-piperidin-1-ylmethyl-phenoxy)-propylcarbamoyl]-methyl}-acetamide], the half-inhibitory concentration (IC50) was 790 nM. For `Cc1cccc(NC(=O)NC2N=C(c3cccc(OCC(=O)NCCCOc4cccc(CN5CCCCC5)c4)c3)c3ccccc3N(C)C2=O)c1` (centres undefined) [2-{3-[1-Methyl-2-oxo-3-(3-m-tolyl-ureido)-2,3-dihydro-1H-benzo[e][1,4]diazepin-5-yl]-phenoxy}-N-[3-(3-piperidin-1-ylmethyl-phenoxy)-propyl]-acetamide], 570 nM corresponded to half-maximal inhibition (IC50). `Cc1cccc(NC(=O)NC2N=C(c3cccc(OCC(=O)NCC(=O)NCCCOc4cccc(CN5CCCCC5)c4)c3)c3ccccc3N(C)C2=O)c1` (centres undefined) [2-{3-[1-Methyl-2-oxo-3-(3-m-tolyl-ureido)-2,3-dihydro-1H-benzo[e][1,4]diazepin-5-yl]-phenoxy}-N-{[3-(3-piperidin-1-ylmethyl-phenoxy)-propylcarbamoyl]-methyl}-acetamide] returned an IC50 of 63 nM. Turning to `CN1C(=O)[C@H](NC(=O)Nc2cccc(CC(=O)NCCCOc3cccc(CN4CCCCC4)c3)c2)N=C(c2ccccc2)c2ccccc21` [2-{3-[3-((R)-1-Methyl-2-oxo-5-phenyl-2,3-dihydro-1H-benzo[e][1,4]diazepin-3-yl)-ureido]-phenyl}-N-[3-(3-piperidin-1-ylmethyl-phenoxy)-propyl]-acetamide], half-maximal inhibition (IC50) was put at 230 nM. In turn, `Cc1cccc(NC(=O)NC2N=C(c3cccc(OCC(=O)NCCC(=O)NCCCOc4cccc(CN5CCCCC5)c4)c3)c3ccccc3N(C)C2=O)c1` (centres undefined) [3-(2-{3-[1-Methyl-2-oxo-3-(3-m-tolyl-ureido)-2,3-dihydro-1H-benzo[e][1,4]diazepin-5-yl]-phenoxy}-acetylamino)-N-[3-(3-piperidin-1-ylmethyl-phenoxy)-propyl]-propionamide] displayed an IC50 of 200 nM. Compound `CN1C(=O)[C@H](NC(=O)Nc2cccc(CC(=O)NCCC(=O)NCCCOc3cccc(CN4CCCCC4)c3)c2)N=C(c2ccccc2)c2ccccc21` [3-(2-{3-[3-((R)-1-Methyl-2-oxo-5-phenyl-2,3-dihydro-1H-benzo[e][1,4]diazepin-3-yl)-ureido]-phenyl}-acetylamino)-N-[3-(3-piperidin-1-ylmethyl-phenoxy)-propyl]-propionamide] came in with a half-inhibitory concentration (IC50) of 136 nM.

`CN1C(=O)[C@H](NC(=O)Nc2cccc(C(=O)NCCCOc3cccc(CN4CCCCC4)c3)c2)N=C(c2ccccc2)c2ccccc21` [3-[3-((R)-1-Methyl-2-oxo-5-phenyl-2,3-dihydro-1H-benzo[e][1,4]diazepin-3-yl)-ureido]-N-[3-(3-piperidin-1-ylmethyl-phenoxy)-propyl]-benzamide] gave an IC50 of 550 nM. The result for `Cc1cccc(NC(=O)NC2N=C(c3ccccc3)c3ccccc3N(CC(=O)NCCC(=O)NCCCOc3cccc(CN4CCCCC4)c3)C2=O)c1` (centres undefined) [3-{2-[2-Oxo-5-phenyl-3-(3-m-tolyl-ureido)-2,3-dihydro-benzo[e][1,4]diazepin-1-yl]-acetylamino}-N-[3-(3-piperidin-1-ylmethyl-phenoxy)-propyl]-propionamide] reads 185 nM; that for `Cc1cccc(NC(=O)NC2N=C(c3cccc(OCC(=O)NCCCC(=O)NCCCOc4cccc(CN5CCCCC5)c4)c3)c3ccccc3N(C)C2=O)c1` (centres undefined) [4-(2-{3-[1-Methyl-2-oxo-3-(3-m-tolyl-ureido)-2,3-dihydro-1H-benzo[e][1,4]diazepin-5-yl]-phenoxy}-acetylamino)-N-[3-(3-piperidin-1-ylmethyl-phenoxy)-propyl]-butyramide], 60 nM; that for `CN1C(=O)[C@H](NC(=O)Nc2cccc(CC(=O)NCCCC(=O)NCCCOc3cccc(CN4CCCCC4)c3)c2)N=C(c2ccccc2)c2ccccc21` [4-(2-{3-[3-((R)-1-Methyl-2-oxo-5-phenyl-2,3-dihydro-1H-benzo[e][1,4]diazepin-3-yl)-ureido]-phenyl}-acetylamino)-N-[3-(3-piperidin-1-ylmethyl-phenoxy)-propyl]-butyramide], 115 nM. As for `Cc1cccc(NC(=O)NC2N=C(c3ccccc3)c3ccccc3N(CC(=O)NCCCC(=O)NCCCOc3cccc(CN4CCCCC4)c3)C2=O)c1` (centres undefined) [4-{2-[2-Oxo-5-phenyl-3-(3-m-tolyl-ureido)-2,3-dihydro-benzo[e][1,4]diazepin-1-yl]-acetylamino}-N-[3-(3-piperidin-1-ylmethyl-phenoxy)-propyl]-butyramide], half-maximal inhibition (IC50) required 210 nM. For `Cc1cccc(NC(=O)NC2N=C(c3cccc(OCC(=O)NCCCCCC(=O)NCCCOc4cccc(CN5CCCCC5)c4)c3)c3ccccc3N(C)C2=O)c1` (centres undefined) [6-(2-{3-[1-Methyl-2-oxo-3-(3-m-tolyl-ureido)-2,3-dihydro-1H-benzo[e][1,4]diazepin-5-yl]-phenoxy}-acetylamino)-hexanoic acid [3-(3-piperidin-1-ylmethyl-phenoxy)-propyl]-amide], half-maximal inhibition (IC50) was put at 32 nM. `CN1C(=O)[C@H](NC(=O)Nc2cccc(CC(=O)NCCCCCC(=O)NCCSCc3csc(N=C(N)N)n3)c2)N=C(c2ccccc2)c2ccccc21` [6-(2-{3-[3-((R)-1-Methyl-2-oxo-5-phenyl-2,3-dihydro-1H-benzo[e][1,4]diazepin-3-yl)-ureido]-phenyl}-acetylamino)-hexanoic acid [2-(2-guanidino-thiazol-4-ylmethylsulfanyl)-ethyl]-amide]: the IC50 stood at 45 nM. The compound `CN1C(=O)[C@H](NC(=O)Nc2cccc(CC(=O)NCCCCCC(=O)NCCCOc3cccc(CN4CCCCC4)c3)c2)N=C(c2ccccc2)c2ccccc21` [6-(2-{3-[3-((R)-1-Methyl-2-oxo-5-phenyl-2,3-dihydro-1H-benzo[e][1,4]diazepin-3-yl)-ureido]-phenyl}-acetylamino)-hexanoic acid [3-(3-piperidin-1-ylmethyl-phenoxy)-propyl]-amide] gave an IC50 of 110 nM. Compound `Cc1cccc(NC(=O)NC2N=C(c3ccccc3)c3ccccc3N(CC(=O)NCCCCCC(=O)NCCCOc3cccc(CN4CCCCC4)c3)C2=O)c1` (centres undefined) [6-{2-[2-Oxo-5-phenyl-3-(3-m-tolyl-ureido)-2,3-dihydro-benzo[e][1,4]diazepin-1-yl]-acetylamino}-hexanoic acid [3-(3-piperidin-1-ylmethyl-phenoxy)-propyl]-amide] showed an IC50 of 16 nM. `Cc1cccc(NC(=O)NC2N=C(c3ccccc3)c3ccccc3N(CC(=O)NCCSCc3csc(N=C(N)N)n3)C2=O)c1` (centres undefined) [N-[2-(2-Guanidino-thiazol-4-ylmethylsulfanyl)-ethyl]-2-[2-oxo-5-phenyl-3-(3-m-tolyl-ureido)-2,3-dihydro-benzo[e][1,4]diazepin-1-yl]-acetamide] returned an IC50 of 3 nM. On to `Cc1cccc(NC(=O)NC2N=C(c3cccc(OCC(=O)NCCSCc4csc(N=C(N)N)n4)c3)c3ccccc3N(C)C2=O)c1` (centres undefined) [N-[2-(2-Guanidino-thiazol-4-ylmethylsulfanyl)-ethyl]-2-{3-[1-methyl-2-oxo-3-(3-m-tolyl-ureido)-2,3-dihydro-1H-benzo[e][1,4]diazepin-5-yl]-phenoxy}-acetamide], for which the midpoint of inhibition, the IC50, lay at 135 nM. `CN1C(=O)[C@H](NC(=O)Nc2cccc(CC(=O)NCCSCc3csc(N=C(N)N)n3)c2)N=C(c2ccccc2)c2ccccc21` [N-[2-(2-Guanidino-thiazol-4-ylmethylsulfanyl)-ethyl]-2-{3-[3-((R)-1-methyl-2-oxo-5-phenyl-2,3-dihydro-1H-benzo[e][1,4]diazepin-3-yl)-ureido]-phenyl}-acetamide] registered an IC50 of 168 nM. With `Cc1cccc(NC(=O)NC2N=C(c3cccc(OCC(=O)NCCC(=O)NCCSCc4csc(N=C(N)N)n4)c3)c3ccccc3N(C)C2=O)c1` (centres undefined) [N-[2-(2-Guanidino-thiazol-4-ylmethylsulfanyl)-ethyl]-3-(2-{3-[1-methyl-2-oxo-3-(3-m-tolyl-ureido)-2,3-dihydro-1H-benzo[e][1,4]diazepin-5-yl]-phenoxy}-acetylamino)-propionamide], the IC50 was determined as 25 nM. `CN1C(=O)[C@H](NC(=O)Nc2cccc(CC(=O)NCCC(=O)NCCSCc3csc(N=C(N)N)n3)c2)N=C(c2ccccc2)c2ccccc21` [N-[2-(2-Guanidino-thiazol-4-ylmethylsulfanyl)-ethyl]-3-(2-{3-[3-((R)-1-methyl-2-oxo-5-phenyl-2,3-dihydro-1H-benzo[e][1,4]diazepin-3-yl)-ureido]-phenyl}-acetylamino)-propionamide] yielded a concentration for half-maximal inhibition (IC50) of 80 nM. The result for `Cc1cccc(NC(=O)NC2N=C(c3ccccc3)c3ccccc3N(CC(=O)NCCC(=O)NCCSCc3csc(N=C(N)N)n3)C2=O)c1` (centres undefined) [N-[2-(2-Guanidino-thiazol-4-ylmethylsulfanyl)-ethyl]-3-{2-[2-oxo-5-phenyl-3-(3-m-tolyl-ureido)-2,3-dihydro-benzo[e][1,4]diazepin-1-yl]-acetylamino}-propionamide] reads 75 nM; that for `Cc1cccc(NC(=O)NC2N=C(c3cccc(OCC(=O)NCCCC(=O)NCCSCc4csc(N=C(N)N)n4)c3)c3ccccc3N(C)C2=O)c1` (centres undefined) [N-[2-(2-Guanidino-thiazol-4-ylmethylsulfanyl)-ethyl]-4-(2-{3-[1-methyl-2-oxo-3-(3-m-tolyl-ureido)-2,3-dihydro-1H-benzo[e][1,4]diazepin-5-yl]-phenoxy}-acetylamino)-butyramide], 14 nM; that for `CN1C(=O)[C@H](NC(=O)Nc2cccc(CC(=O)NCCCC(=O)NCCSCc3csc(N=C(N)N)n3)c2)N=C(c2ccccc2)c2ccccc21` [N-[2-(2-Guanidino-thiazol-4-ylmethylsulfanyl)-ethyl]-4-(2-{3-[3-((R)-1-methyl-2-oxo-5-phenyl-2,3-dihydro-1H-benzo[e][1,4]diazepin-3-yl)-ureido]-phenyl}-acetylamino)-butyramide], 240 nM.

For the origin of these results see BindingDB's records for doi:10.1016/S0960-894X(96)00248-X (1996).
